Like-named read-outs stand apart in the source and are kept apart here.
What was measured:
[1] = tested on: NO production in RAW 264.7 mouse macrophages stimulated by lipopolysaccharide (LPS); assay: Inhibitory assay of NO production (Griess) in LPS-stimulated RAW264.7 cells; format: cell-based; conditions: for activity at 1 µM / activity at 3 µM / activity at 10 µM / activity at 30 µM / IC50: Mus musculus; for activity at 1 µM / activity at 3 µM / activity at 10 µM / activity at 30 µM: read-out: Produced NO %; for IC50: read-out: IC50 (inhibition of NO production); for NO inhibitory activity (in words): 1–30 μM tested
Protocol: An inhibitory assay of NO production was examined in accordance with a previously reported method with minor modifications. Briefly, RAW264.7 cells (5 × 10^4 cells in 100 μL) were seeded on a 96-well microplate and incubated for 24 h. DMEM-containing test samples (100 μL total volume, final concentration of 30, 10, 3, or 1 μM) dissolved in DMSO (final concentration 0.2%) and LPS (final concentration of 5 μg/mL) was added. After being treated for 24 h, the supernatant of the culture medium was transferred to another 96-well microplate, and 50 μL of 0.15% N-(1-naphtyl)ethylenediamine in H2O and 1.5% sulfanilamide in 7.5% phosphoric acid were then added. After being incubated for 30 min, absorbance in each well was read at 570 nm using a microplate reader. The optical density of vehicle control cells was assumed to be 100%

[2] = tested on: RAW264.7 cells; assay: RAW264.7 cell proliferation / cell viability (MTT); format: cell-based, mouse; conditions: for Cell Viavility %: 24 h, MTT, vs DMSO (100%), mean ± S.E., n=4
Protocol: RAW264.7 cell proliferation was examined in accordance with a previously reported method. Briefly, RAW264.7 cells (5 × 10^4 cells in 100 μL) were seeded on a 96-well microplate and incubated for 24 h. Dulbecco's modified eagle's medium (DMEM)-containing test samples (100 μL total volume, final concentration of 30, 10, 3, or 1 μM) dissolved in dimethyl sulfoxide (DMSO, final concentration 0.2%) was added. After being treated for 24 h, thiazolyl blue tetrazolium bromide (MTT) solution was added. After a 3-h incubation, 20% sodium dodecyl sulfate in 0.1 M HCl was added to dissolve the formazan produced in the cells. Absorbance in each well was read at 570 nm using a microplate reader. The optical density of vehicle control cells was assumed to be 100%.

[3] = RAW264.7, 1 μM, LPS 5 μg/mL, 24 h, vs DMSO (100%), mean ± S.E., n=4
[4] = RAW264.7, 3 μM, LPS 5 μg/mL, 24 h, vs DMSO (100%), mean ± S.E., n=4
[5] = RAW264.7, 10 μM, LPS 5 μg/mL, 24 h, vs DMSO (100%), mean ± S.E., n=4
[6] = RAW264.7, 30 μM, LPS 5 μg/mL, 24 h, vs DMSO (100%), mean ± S.E., n=4

SMILES | activity at 1 µM [1, 3] | activity at 3 µM [1, 4] | activity at 10 µM [1, 5] | activity at 30 µM [1, 6] | IC50 ([1]; LPS-stimulated RAW264.7, 24 h) | Cell Viavility % ([2]; 1 μM) | Cell Viavility % ([2]; 3 μM) | Cell Viavility % ([2]; 10 μM) | Cell Viavility % ([2]; 30 μM) | melting point | NO inhibitory activity (in words) [1] | Cytotoxicity (in words) ([2]; at 1–30 μM) | IC50 ([1]; RAW264.7, 24 h) | activity at 1 µM ([1]; RAW264.7, 24 h) | activity at 3 µM ([1]; RAW264.7, 24 h) | activity at 10 µM ([1]; RAW264.7, 24 h) | activity at 30 µM ([1]; RAW264.7, 24 h) | Cytotoxicity at effective concentration (in words) ([2]; at 1–10 μM) | Cytotoxicity (in words) ([2]; at higher concentrations)
CNC(=N)NCCC[C@H](N)C(=O)O [L-NMMA, N^G-monomethyl-L-arginine acetate, reference compound] | 93.3 ± 2.2% | 91.4 ± 0.8% | 68.9 ± 4.5% | 43.1 ± 1.1% | 23.9 µM | (101.5 ± 0.9) % | (101.9 ± 0.4) % | (98.5 ± 0.9) % | (109.4 ± 0.5) % | – | – | – | – | – | – | – | – | – | –
CC(=O)O[C@H]1CC[C@]2(C)[C@H]3CC[C@@]4(C)[C@@H]5[C@@H](C)[C@H](C)CC[C@]5(C)CC[C@]4(C)C3=CC(=O)[C@H]2C1(C)C [Compound 2, 3β-acetoxybauer-7-en-6-one] | 95.6 ± 2.7% | 101 ± 2.6% | 86.5 ± 1.4% | 71.4 ± 1.8% | > 30 µM | (100.0 ± 1.3) % | (102.2 ± 0.3) % | (105.1 ± 0.3) % | (105.7 ± 2.0) % | 110 to 112 °C | – | – | – | – | – | – | – | – | –
CO[C@@H]1C=C2[C@@H]3CC(C)(C)CC[C@]3(C)CC[C@@]2(C)[C@]2(C)CC[C@H]3C(C)(C)C(=O)CC[C@]3(C)[C@@H]12 [Compound 8, 11α-methoxyolean-12-en-3-one] | 102.9 ± 0.7% | 105 ± 3.1% | 90.2 ± 7.1% | 64.1 ± 3.3% | > 30 µM | (99.9 ± 0.1) % | (100.4 ± 0.1) % | (100.5 ± 0.2) % | (103.0 ± 1.6) % | – | exhibited NO inhibitory activities | no cytotoxicity | – | – | – | – | – | – | –
C=C(C)C(=O)CC[C@@H](C)[C@@H]1CC[C@]2(C)C3=CC[C@H]4C(C)(C)[C@@H](OC(C)=O)CC[C@]4(C)[C@H]3CC[C@@]12C [Compound 10] | – | – | – | – | – | (108.3 ± 4.7) % | (100.4 ± 0.2) % | (100.2 ± 0.1) % | (2.6 ± 0.4) % | – | exhibited NO inhibitory activities | – | 18.4 µM | 93.8 ± 1.8% | 81.6 ± 3.7% | 67.5 ± 2.4% | 37 ± 1.8% | did not exhibit cytotoxicity | some cytotoxicity
CC(C)C1=CC(=O)C(C)CCC2(C)C(CCC3C4(C)CCC(=O)C(C)(C)C4CCC32C)C1=O (centres unmarked) [Compound 7, officinatrione] | 101 ± 1% | 101 ± 2.5% | 89.8 ± 1.1% | 66.8 ± 0.8% | > 30 µM | (98.3 ± 2.6) % | (103.0 ± 2.4) % | (99.7 ± 3.8) % | (99.8 ± 3.0) % | – | exhibited NO inhibitory activities | no cytotoxicity | – | – | – | – | – | – | –
CC(C)=CCC[C@@H](C)[C@@H]1CC[C@]2(C)C3=CC[C@H]4C(C)(C)C(=O)CC[C@]4(C)[C@H]3CC[C@@]12C [Compound 9, eupha-7,24-dien-3-one] | – | – | – | – | – | (99.3 ± 0.2) % | (98.8 ± 0.2) % | (99.1 ± 0.4) % | (99.9 ± 0.6) % | – | – | – | > 30 µM | 98.4 ± 3.9% | 100 ± 1.6% | 109 ± 2% | 108 ± 4.7% | – | –
